Results on 16 compounds are retold here after patent US11584727B2, “2-thioxothiazolidin-4-one derivatives active as transthyretin ligands and uses thereof” (BSIM Therapeutics, S.A., priority 2014, dated 2023).

Read-outs that look alike come from different tables or passages of the source.

The target of data set [1] is T1, wild type transthyretin (WT-TTR) (Homo sapiens, UniProt P02766).
T1 construct: made in house; host or cells: E. coli BL21 (DE3), pET23a plasmid
The data set is described as follows: WT-TTR amyloid fibril formation assay (turbidimetry, acid-induced). The data set is classed as biochemical. To be noted: pH 4.4, 72 hours; for inhibitory activity against TTR amyloid fibril formation compared with reference compounds (in words): TTR 3.6 μM; for Fibril Formation (%): WT-TTR 3.6 μM, 1:1 TTR-compound stoichiometry, 37° C., normalized to no-compound control (100%); for IC50: WT-TTR fixed at 3.6 μM, ten compound concentrations. On the procedure: (§1) The first set of evaluations is based on a fast, stagnant fibril formation assay that is used for the early screening of compounds, be they virtual screening hits or newly synthesized analogues. In this assay, a solution of the compound under test at 1.8, 3.6 or 7.2 μM is added to a solution of TTR at 3.6 μM, so that there is enough compound to bind to either one or both of TTR's binding sites. The pH of the resulting solution is then lowered to 4.4 to promote amyloidogenesis. The process of amyloid fibril formation over time is assessed by turbidimetry measurements at three different wavelengths (405, 450 and 490 nm, or at 550, 600 and 650 nm when the compound absorbs light at the previous wavelengths), using a spectrophotometer endowed with a BioTek microplate reader. The extent of fibril formation of each mixture is determined by normalizing a sample with the protein (TTR), in absence of compounds, which, at the end of 72 hours, represents 100% of amyloid fibril formation. In each experiment, each compound concentration is tested in triplicate. For each compound concentration and incubation time, the arithmetic mean of the triplicate experiments is calculated, as well as the arithmetic mean of the three measured wavelengths. High activity can be defined as a percentage of fibril formation below 10% at compound concentration 7.2 μM (TTR:compound stoichiometry 1:2) and below 40% at 3.6 μM (TTR:compound stoichiometry 1:1).
The in vitro activity of the compounds was assessed through a biochemical assay based on turbidimetry measurements, in which fibril formation is induced by acidification of the solution to pH 4.4 after incubation with the hit compound to be tested. The amount of amyloid fibrils formed is then monitored throughout 72 hours. Further details on this assay are provided in the “Evaluation of amyloid inhibition in vitro” subsection in “Materials and Methods”.
Experimental evaluation of the in vitro activity of virtual screening hits against amyloid fibril formation by TTR was carried out using a biochemical assay based on turbidimetry measurements. In this assay, fibril formation is induced by acidification of the solution to pH 4.4 after incubation with the hit compound to be tested. The amount of amyloid fibrils formed is monitored over 72 hours. Further details on the assay are provided in the “Evaluation of amyloid inhibition in vitro” subsection below.
(§2) Purchased virtual screening hits and all synthesized (optimization) derivatives were dissolved in DMSO to a final concentration of 10.8 mM to provide a primary stock solution. Several secondary stock solutions were prepared in DMSO by dilution of the primary stock solution and the concentrations were chosen depending on the effectiveness of the compound in inhibiting the TTR amyloid fibril formation.
(§3) The fibril formation assay was adapted to run in a high-throughput screening mode. For this purpose, 96-well microplates were used with a final assay volume of 100 μL.
(§4) One microLitre (μL) of different compound secondary stock solutions was added to 50 μL of a 7.2 μM wild type TTR (WT-TTR) or Val122Ile-TTR (V122I-TTR) solutions in 10 miliMolar (mM) sodium phosphate buffer, 100 mM KCl and 1 mM EDTA, pH 7.2, previously dialyzed against the same buffer solution. After 30 minutes of incubation at room temperature, the pH of the mixture was lowered to 4.4 with 49 μL of 200 mM acetate buffer, 100 mM KCl and 1 mM EDTA, pH 4.3.
The mixtures were incubated at 37° C. during 72 hours. Turbidity at 405 nm, 450 nm and 490 nm (or at 550, 600 and 650 nm when the test compound absorbs light at the previous wavelengths) was measured over time (0, 17, 24, 41, 48, 65 and 72 hours) using a BioTek Microplate Spectrophotometer to evaluate the extent of fibril formation. Immediately before the turbidity measurements, the mixtures were gently shacked during 1 minute to homogenize well and not damage the formed amyloid aggregates and fibrils.

The target in data set [2] is Val122Ile transthyretin (V122I-TTR) (Homo sapiens, UniProt P02766, V142I). Nature of the data set: V122I-TTR amyloid fibril formation assay (turbidimetry, acid-induced). The data set is classed as biochemical. The settings on record: pH 4.4, 72 hours; for Fibril Formation (%): V122I-TTR 3.6 μM, 37° C.; for IC50: V122I-TTR fixed at 3.6 μM, ten compound concentrations. The protocol:
as §1, §2, §3, §4
The mixtures were incubated at 37° C. during 72 hours. Turbidity at 405 nm, 450 nm and 490 nm (or at 550, 600 and 650 nm when the test compound absorbs light at the previous wavelengths) was measured over time (0, 17, 24, 41, 48, 65 and 72 hours) using a BioTek Microplate Spectrophotometer to evaluate the extent of fibril formation. Immediately before the turbidity measurements, the mixtures were gently shacked during 1 minute to homogenize well and not damage the formed amyloid aggregates and fibrils. The final turbidity was calculated as an average of the three wavelengths measured.
In addition, control samples containing TTR with no inhibitor and 1% DMSO, as well as inhibitor in absence of TTR were tested and analyzed.
The extent of amyloid fibril formation data was normalized to TTR in the absence of inhibitor, assigned to be 100% fibril formation (or 0% amyloid inhibition) at the end of the experiment.
The extent of amyloid fibril formation throughout 72 hours was determined as described in the “Evaluation of amyloid inhibition in vitro” subsection above.
IC50 values were calculated from the inhibition curves obtained by fitting the values by a nonlinear curve method using the OriginPro7 (OriginLab Corporation, USA).

Setting [3] is: read-out: IC50 (μM), concentration inhibiting WT-TTR amyloid fibril formation by 50%.

On to `COc1cccc(/C=C2\SC(=S)N(C(C)C(=O)O)C2=O)c1` (stereo not shown) [AT50-B00, (Z)-3-(1′-hydroxycarbonylethyl)-5-(3′-methoxyphenylmethylidene)-2-thioxothiazolidin-4-one], for which, in data set [1], the “inhibitory activity against TTR amyloid fibril formation compared with reference compounds (in words)” value is “superior to that of reference compounds Tafamidis”, the “Fibril Formation (%)” value is 35% and the IC50 is 2.38 ± 0.17 µM.

For the compound `COc1cc(/C=C2/SC(=S)N(CC(=O)O)C2=O)cc(Cl)c1O` [AT50-A00 (E), (E)-3-hydroxycarbonylmethyl-5-(3′-chloro-4′-hydroxy-5′-methoxyphenylmethylidene)-2-thioxothiazolidin-4-one], in data set [2], the “Fibril Formation (%)” value is reported as 45% and the IC50 stood at 3.06 µM. Moreover, in data set [1], the “Fibril Formation (%)” value came to 26% and the IC50 is 1.73 ± 0.06 µM.

For the compound `O=C(O)CN1C(=O)/C(=C/c2cc(Br)c(O)c(Br)c2)SC1=S` [AT50-A50, (Z)-5-(3′,5′-dibromo-4′-hydroxyphenylmethylidene)-3-hydroxycarbonylmethyl-2-thioxothiazolidin-4-one], in data set [1], the “Fibril Formation (%)” value came out at 8% and the IC50 worked out at 0.9 µM.

For `O=C(O)CC[C@@H](C(=O)O)N1C(=O)/C(=C/c2c(Cl)cccc2Cl)SC1=S` [AT50-C00, (Z)-(1′S)-5-(2′,6′-dichlorophenylmethylidene)-3-(1′,3′-di(hydroxycarbonyl)propyl)-2-thioxothiazolidin-4-one], in data set [1], the “inhibitory activity against TTR amyloid fibril formation compared with reference compounds (in words)” value is “superior to that of reference compounds Tafamidis”, the “Fibril Formation (%)” value turned out to be 26% and the IC50 was 2.05 ± 0.04 µM.

With `NC(Cc1cc(I)c(Oc2cc(I)c(O)c(I)c2)c(I)c1)C(=O)O` (stereo in doubt) [Thyroxine, (2S)-2-amino-3-[4-(4-hydroxy-3,5-diiodophenoxy)-3,5-diiodophenyl]propanoic acid, reference compound], the “Fibril Formation (%)” value in data set [2] turned out to be 42%; in data set [1], 28%.

On to `COc1cc(/C=C2\SC(=S)N([C@H](CC(C)C)C(=O)O)C2=O)cc(OC)c1O` [AT50-B01, (Z)-(1′S)-5-(4′-hydroxy-3′,5′-dimethoxyphenylmethylidene)-3-(1′-hydroxycarbonylisopentyl)-2-thioxothiazolidin-4-one], for which, in data set [2], the “Fibril Formation (%)” value came out at 20% and the IC50 came to 1.48 µM. In addition, in data set [1], the “Fibril Formation (%)” value is listed as 10% and the IC50 came to 0.95 ± 0.45 µM.

On to `Oc1c(Cl)cc(-c2cc(Cl)c(O)c(Cl)c2)cc1Cl` [2OH- PCB80, 2,6-dichloro-4-(3,5-dichloro-4-oxidophenyl)benzen-1-olate, reference compound], for which the “Fibril Formation (%)” value in data set [2] is on record as 24%; in data set [1], 20%. Moreover, the IC50 in data set [2] amounted to 1.45 µM; in data set [1] (setting [3]) it was 1.59 ± 0.27 µM.

Consider “(Z)-5-(3′,5′-dichloro-4′-hydroxyphenylmethylidene)-3-hydroxycarbonylmethyl-2,4-dioxothiazolidine [AT50-A49]”, for which the “Fibril Formation (%)” value came out at 12% in data set [2] and 4% in data set [1]. Also, the IC50 came to 1.32 µM in data set [2] (read-out: IC50 (μM), concentration inhibiting V122I-TTR amyloid fibril formation by 50%) and 0.89 ± 0.15 µM in data set [1] (setting [3]).

On to `Cc1cc(/C=C2\SC(=S)N([C@@H](CCC(=O)O)C(=O)O)C2=O)cc(Cl)c1O` [AT50-C02, (Z)-(1′S)-5-(3′-chloro-4′-hydroxy-5′-methylphenylmethylidene)-3-(1′,3′-di(hydroxycarbonyl)propyl)-2-thioxothiazolidin-4-one], for which, in data set [1], the “Fibril Formation (%)” value is 18% and the IC50 worked out at 1.79 ± 0.13 µM.

One may read the melting point as the temperature, or range, at which the solid turns liquid. With `Cc1cc(/C=C2\SC(=S)N(CC(=O)O)C2=O)cc(O)c1O` [AT50-A35, (Z)-5-(3′,4′-dihydroxy-5′-methylphenylmethylidene)-3-hydroxycarbonylmethyl-2-thioxothiazolidin-4-one], the melting point was in the range of 238 to 239 °C. Further, in data set [1], the “Fibril Formation (%)” value is 21% and the IC50 was found to be 2.23 µM.

In turn, `O=C(O)CCN1C(=O)/C(=C/c2cc(O)c(O)c(Cl)c2)SC1=S` [AT50-C19, (Z)-5-(3′-chloro-4′,5′-dihydroxyphenylmethylidene)-3-(2′-hydroxycarbonylethyl)-2-thioxothiazolidin-4-one] yielded a melting point of 243 to 245 °C. Further, the “Fibril Formation (%)” value in data set [1] amounted to 33%.

On to `Cc1cc(/C=C2\SC(=S)N(CCC(=O)O)C2=O)cc(O)c1O` [AT50-C20, (Z)-5-(3′,4′-dihydroxy-5′-methylphenylmethylidene)-3-(2′-hydroxycarbonylethyl)-2-thioxothiazolidin-4-one], for which the melting point was in the range of 221 to 222 °C. In addition, the “Fibril Formation (%)” value in data set [1] is given as 39%.

On to `O=C(O)CC[C@@H](C(=O)O)N1C(=O)/C(=C/c2ccc(O)c(Br)c2)SC1=S` [AT50-C01, (Z)-(1′S)-5-(3′-bromo-4′-hydroxyphenylmethylidene)-3-(1′,3′-di(hydroxycarbonyl)propyl)-2-thioxothiazolidin-4-one], for which, in data set [2], the “Fibril Formation (%)” value turned out to be 39% and the IC50 was determined as 2.66 µM. Besides, in data set [1], the “Fibril Formation (%)” value was 13% and the IC50 is 1.38 ± 0.3 µM.

The compound `COc1cc(/C=C2\SC(=S)N(CC(=O)O)C2=O)cc(C)c1O` [AT50-A47, (Z)-3-hydroxycarbonylmethyl-5-(4′-hydroxy-3′-methoxy-5′-methylphenylmethylidene)-2-thioxothiazolidin-4-one] registered a melting point of 238 to 239 °C. Also, in data set [1], the “Fibril Formation (%)” value is given as 21% and the IC50 was determined as 2.05 µM.

`COc1cc(/C=C2\SC(=S)N(CCC(=O)O)C2=O)cc(C)c1O` [AT50-C18, (Z)-5-(4′-hydroxy-3′-methoxy-5′-methylphenylmethylidene)-3-(2′-hydroxycarbonylethyl)-2-thioxothiazolidin-4-one] showed a melting point of 194 to 196 °C. The “Fibril Formation (%)” value in data set [1] is given as 30%.

As for “(Z)-5-(3′-bromo-4′-hydroxy-5′-iodophenylmethylidene)-3-hydroxycarbonylmethyl-2,4-dioxothiazolidine [AT50-A51]”, the “Fibril Formation (%)” value in data set [1] was 5%. The IC50 in data set [1] (setting [3]) worked out at 1.07 ± 0.42 µM.
